Experimental data taken from the supplement of paper PMC10307832.

How the values were obtained:
Test in all cases: relative viability (nuclei count vs DMSO), 5 days (fraction); higher = more cells survive
Cediranib + Luminespib = compound: COc1cc2c(Oc3ccc4[nH]c(C)cc4c3F)ncnc2cc1OCCCN1CCCC1 [Cediranib] + CCNC(=O)c1noc(-c2cc(C(C)C)c(O)cc2O)c1-c1ccc(CN2CCOCC2)cc1 [Luminespib] (partner 0.01 µM)
Procedure, shortened: (§1)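 Relative viability was taken as the ratio of nuclei in treated wells to nuclei in vehicle wells. Lung cancer cell lines in 1536-well plates received compounds by pin tool one day after seeding, either one drug alone or a fixed anchor-drug dose plus five library-drug doses (not always all listed) in √10 steps. Nuclei were counted on 4× images after 5 days of treatment, and values are medians of duplicate plates.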

Decitabine + Foretinib = compound: Nc1ncn([C@H]2C[C@H](O)[C@@H](CO)O2)c(=O)n1 [Decitabine] + COc1cc2c(Oc3ccc(NC(=O)C4(C(=O)Nc5ccc(F)cc5)CC4)cc3F)ccnc2cc1OCCCN1CCOCC1 [Foretinib] (partner 0.25 µM)
Procedure, shortened: as §1

Cediranib + AZD7762 = compound: COc1cc2c(Oc3ccc4[nH]c(C)cc4c3F)ncnc2cc1OCCCN1CCCC1 [Cediranib] + NC(=O)Nc1cc(-c2cccc(F)c2)sc1C(=O)N[C@H]1CCCNC1 [AZD7762] (partner 0.2 µM)
Procedure, shortened: as §1

Decitabine + Palbociclib = compound: Nc1ncn([C@H]2C[C@H](O)[C@@H](CO)O2)c(=O)n1 [Decitabine] + CC(=O)c1c(C)c2cnc(Nc3ccc(N4CCNCC4)cn3)nc2n(C2CCCC2)c1=O [Palbociclib] (partner 0.5 µM)
Procedure, shortened: as §1

Row | Cell Line | relative viability (Cediranib + Luminespib; first compound 0.04 µM) | relative viability (Cediranib + Luminespib; first compound 0.4 µM) | relative viability (Cediranib + Luminespib; first compound 1.265 µM) | relative viability (Cediranib + Luminespib; first compound 4 µM) | relative viability (Decitabine + Foretinib; first compound 0.04 µM) | relative viability (Decitabine + Foretinib; first compound 0.1265 µM) | relative viability (Decitabine + Foretinib; first compound 0.4 µM) | relative viability (Decitabine + Foretinib; first compound 1.265 µM) | relative viability (Decitabine + Foretinib; first compound 4 µM) | relative viability (Cediranib + AZD7762; first compound 0.04 µM) | relative viability (Cediranib + AZD7762; first compound 0.1265 µM) | relative viability (Cediranib + AZD7762; first compound 0.4 µM) | relative viability (Cediranib + AZD7762; first compound 1.265 µM) | relative viability (Cediranib + AZD7762; first compound 4 µM) | relative viability (Decitabine + Palbociclib; first compound 0.04 µM) | relative viability (Decitabine + Palbociclib; first compound 0.1265 µM) | relative viability (Decitabine + Palbociclib; first compound 0.4 µM) | relative viability (Decitabine + Palbociclib; first compound 1.265 µM) | relative viability (Decitabine + Palbociclib; first compound 4 µM) | relative viability (Cediranib + Luminespib; first compound 0.1265 µM)
1 | NCI-H1623 | 0.528 | 0.425 | 0.457 | 0.526 | 0.706 | 0.822 | 0.657 | 0.53 | 0.549 |  |  |  |  |  |  |  |  |  |  | 
2 | HCC-827 | 0.724 | 0.541 | 0.5 | 0.439 | 0.351 | 0.383 | 0.333 | 0.3 | 0.279 | 0.226 | 0.455 | 0.193 | 0.163 | 0.198 | 0.231 | 0.311 | 0.294 | 0.262 | 0.181 | 
3 | NCI-H322M | 0.982 | 0.826 | 0.831 | 0.771 | 0.818 | 0.872 | 0.669 | 0.485 | 0.473 | 0.621 | 0.671 | 0.495 | 0.424 | 0.565 | 0.439 | 0.485 | 0.554 | 0.479 | 0.463 | 1.15
4 | ChaGo-K-1 | 0.588 | 0.525 | 0.638 | 0.738 | 0.819 | 0.683 | 0.507 | 0.376 | 0.421 | 0.843 | 0.684 | 0.886 | 0.9 | 0.948 | 0.764 | 0.545 | 0.442 | 0.362 | 0.637 | 0.621
5 | BEN | 0.379 | 0.338 | 0.201 | 0.381 | 0.596 | 0.566 | 0.35 | 0.437 | 0.38 | 0.772 | 0.587 | 0.649 | 0.517 | 0.696 | 0.497 | 0.443 | 0.455 | 0.435 | 0.42 | 
6 | NCI-H2347 | 0.321 | 0.637 | 0.506 | 0.747 |  | 0.857 | 0.454 | 0.683 | 0.819 | 0.808 | 0.808 | 0.755 | 0.746 | 0.691 | 0.462 | 0.417 | 0.411 | 0.423 | 0.437 | 0.404
7 | LOU-NH91 | 0.354 | 0.286 | 0.314 | 0.338 | 0.56 | 0.913 | 0.726 | 0.739 | 0.756 | 0.803 | 0.86 | 0.693 | 0.697 | 0.803 | 0.514 | 0.592 | 0.588 | 0.507 | 0.415 | 0.272
8 | NCI-H2228 | 0.118 | 0.129 | 0.144 | 0.14 | 0.593 | 0.532 | 0.352 | 0.273 | 0.207 |  |  |  |  |  | 0.385 | 0.463 | 0.215 | 0.204 | 0.169 | 0.176
9 | NCI-H2342 | 0.858 | 0.919 | 0.704 | 0.82 | 1.29 | 1.03 | 1.1 | 0.674 | 0.568 | 0.502 | 0.635 | 0.421 | 0.402 | 0.464 | 0.641 | 0.54 | 0.548 | 0.463 | 0.508 | 0.801
10 | HCC-366 |  |  |  |  | 0.825 | 0.743 | 0.448 | 0.211 | 0.128 | 0.41 | 0.314 | 0.181 | 0.376 | 0.266 | 0.306 | 0.244 | 0.175 | 0.0803 | 0.0669 | 
11 | NCI-H2405 | 0.897 | 0.649 | 0.657 | 0.532 | 0.957 | 0.918 | 0.863 | 0.628 | 0.462 | 0.749 | 1.31 | 0.594 | 0.864 | 0.803 | 0.511 | 0.516 | 0.436 | 0.397 | 0.349 | 0.712
12 | Calu-6 |  |  |  |  | 0.698 | 0.525 | 0.275 | 0.243 | 0.217 |  |  |  |  |  |  |  |  |  |  | 
13 | 201T | 1.2 | 1 | 1.03 | 1.03 | 1.18 | 1.35 | 1.02 | 0.744 | 0.727 | 0.705 | 0.445 | 0.607 | 0.521 | 0.618 | 0.373 | 0.383 | 0.439 |  | 0.379 | 1.34
14 | CAL-12T | 0.242 | 0.364 | 0.359 | 0.361 | 1.08 | 0.883 |  | 0.618 | 0.419 | 0.668 | 0.638 | 0.633 | 0.603 | 0.669 | 0.279 | 0.431 | 0.25 | 0.28 | 0.288 | 0.369
15 | HCC-44 |  | 0.986 | 1.07 | 0.843 |  |  |  |  |  | 1.09 | 0.843 | 1 | 0.941 | 1.04 | 1.01 | 0.935 | 0.808 | 0.761 | 0.873 | 
16 | NCI-H358 | 0.257 | 0.381 | 0.328 | 0.364 | 0.53 | 0.406 | 0.274 | 0.142 | 0.136 | 0.613 | 0.496 | 0.478 | 0.596 | 0.502 | 0.179 | 0.118 | 0.114 | 0.13 | 0.135 | 0.426
17 | SW 900 | 0.167 | 0.195 | 0.188 | 0.169 | 0.489 | 0.305 | 0.206 | 0.167 | 0.202 | 0.839 | 0.536 | 0.594 | 0.621 | 0.835 | 0.457 | 0.506 | 0.314 | 0.305 | 0.348 | 0.186
18 | NCI-H2087 | 0.194 | 0.191 | 0.136 | 0.144 | 0.558 | 0.624 | 0.393 | 0.317 | 0.269 | 1.08 | 1.34 | 1.26 | 1.23 | 1.43 | 0.204 | 0.265 | 0.204 | 0.202 | 0.221 | 0.191
